“And” between values parts separate entries of the source, which are not always exact repeats. Identical values can stand only once. Like-named read-outs stand apart in the source and are kept apart here.
What was measured:
Cordana musae [1] = test: in vitro-Test with fungal microorganisms, Method B (tables E9-E16); assay type: cell-based; settings: single active
Method in brief: (§1)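 Efficacy scale: 0% means growth equal to the untreated control, 100% means none detected. Compounds are dried from methanol with emulsifier before adding inoculated growth medium; incubation at 20° C., 85% relative humidity for 3 to 7 days precedes photometric inhibition readout.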

Colletotrichum coccodes = test: in vitro-Test with fungal microorganisms, Method B (tables J1-J11); assay type: cell-based
Method in brief: as §1

Botrytis cinerea [2] = test: in vitro-Test with fungal microorganisms, Method B (tables B15-B18); assay type: cell-based
Method in brief: as §1

Fusarium culmorum = test: in vitro-Test with fungal microorganisms, Method B (tables G5-G15); assay type: cell-based
Method in brief: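 Read photometrically at 600 nm after 3-7 days at 20° C and 85% relative humidity, Fusarium culmorum growth inhibition is expressed against untreated control. Wells hold solvent-evaporated compound (from methanol/emulsifier) overlaid with spore- or mycelium-amended growth medium.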

Alternaria alternata = test: in vitro-Test with fungal microorganisms, Method B (tables A13-A22); assay type: cell-based
Method in brief: as §1

Diaporthe citri [3] = test: in vitro-Test with fungal microorganisms, Method B (tables F12-F15); assay type: cell-based; settings: Table F13
Procedure: (§2) Example: In Vitro-Test with Fungal Microorganisms
(§3) Wells of 96-well microtiter plates are filled with 30 μl of a preparation of test compound or compound combination in methanol+emulsifier alkylaryl-polyglycol-ether. Thereafter, the solvent is evaporated in a hood. At the next step, 200 μl of liquid growth medium is given, that has been amended with an appropriate concentration of spores or mycelium suspension of the test fungus.
(§4) With the aid of a photometer, the extinction in all wells is measured at the wavelength of 600 nm.
(§5) The microtiter plates are incubated for 3 to 7 days at 20° C. and 85% relative humidity. After the incubation inhibition of growth is determined photometrically. Efficacy is calculated in relation to the untreated control, 0% efficacy means fungal growth as high as in untreated control while 100% efficacy means no fungal growth is measured.
(§6) The data in tables A1 to A12, B1 to B14, C1 to C10, D1 to D8, E1 to E8, F1 to F11, G1 to G4, H1 to H4 and I1 to I5 were collected according to Method A. The data in tables A13 to A22, B15 to B18, C11 to C20, E9 to E16, F12 to F15, G5 to G15, H5 to H8, I6 to I11 and J1 to J11 were collected according to Method B.

[4] = system: Ustilago segetum var. avenae; test: in vitro-Test with fungal microorganisms, Method B (tables I6-I11); assay type: cell-based; settings: read-out: Efficacy %
Method in brief: as §1

Cercospora beticola [5] = test: in vitro-Test with fungal microorganisms, Method B (tables C11-C20); assay type: cell-based
Method in brief: as §1

Cordana musae [6] = test: in vitro-Test with fungal microorganisms, Method A (tables E1-E8); assay type: cell-based; settings: mixing partner alone
Method in brief: (§7)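 Growth inhibition was measured photometrically at 620 nm 3–5 days after application, with 100% efficacy meaning no growth and 0% meaning growth equal to the untreated control. Fungal spore or mycelium suspension in potato dextrose broth was added onto solvent-evaporated compound and incubated at 20° C and 85% relative humidity.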

Cercospora beticola [7] = test: in vitro-Test with fungal microorganisms, Method A (tables C1-C10); assay type: cell-based
Method in brief: as §7

Botrytis cinerea [8] = test: in vitro-Test with fungal microorganisms, Method A (tables B1-B14); assay type: cell-based; settings: for Efficacy %: alone
Method in brief: as §7

Alternaria alternate = test: in vitro-Test with fungal microorganisms, Method A (tables A1-A12); assay type: cell-based, Alternaria alternata; settings: applied alone
Method in brief: as §7

[9] = system: Colletotrichum lindemuthianum; test: in vitro-Test with fungal microorganisms, Method A (tables D1-D8); assay type: cell-based
Method in brief: as §7

Diaporthe citri [10] = test: in vitro-Test with fungal microorganisms, Method A (tables F1-F11); assay type: cell-based
Method in brief: as §7

Parastagonospora nodorum = test: in vitro-Test with fungal microorganisms, Method B (tables H5-H8); assay type: cell-based; settings: 0.08 ppm
Procedure: as §2, §3, §4, §5, §6

## CO/N=C(/C1=NOCCO1)c1ccccc1Oc1ncnc(Oc2ccccc2Cl)c1F [(3.012) fluoxastrobin, fluoxastrobin]
Cordana musae [1]; Neocordana musae, 0.08 ppm, read-out: Efficacy
  inhibition of growth at 0.08 ppm: 3%
Colletotrichum coccodes; Colletotrichum coccodes, 0.08 ppm, read-out: Efficacy %
  inhibition of growth at 0.08 ppm: 41%
Colletotrichum coccodes; Colletotrichum coccodes, single active compound at 0.08 ppm, read-out: Efficacy %
  inhibition of growth at 0.08 ppm: 0%
Colletotrichum coccodes; Colletotrichum coccodes, single active compound at 2 ppm, read-out: Efficacy %
  inhibition of growth at 2 ppm: 0%
Botrytis cinerea [2]; Botrytis cinerea, 0.4 ppm alone, read-out: Efficacy %
  inhibition of growth at 0.4 ppm: 20%
Botrytis cinerea [2]; Botrytis cinerea, 2 ppm alone, read-out: Efficacy %
  inhibition of growth at 2 ppm: 31%
Fusarium culmorum; Fusarium culmorum, 0.08 ppm, alone, read-out: Efficacy
  inhibition of growth at 0.08 ppm: 19%
Fusarium culmorum; Fusarium culmorum, single active compound, 0.08 ppm, read-out: Efficacy
  inhibition of growth at 0.08 ppm: 27%
Fusarium culmorum; Fusarium culmorum, single active compound, 0.4 ppm, read-out: Efficacy
  inhibition of growth at 0.4 ppm: 47%
Fusarium culmorum; Fusarium culmorum, single active compound, 2 ppm, read-out: Efficacy
  inhibition of growth at 2 ppm: 37%
Alternaria alternata; Alternaria alternata, 4 ppm, read-out: Efficacy
  inhibition of growth at 4 ppm: 68%
Alternaria alternata; Alternaria alternata, 20 ppm, read-out: Efficacy
  inhibition of growth at 20 ppm: 92%
Alternaria alternata; Alternaria alternata, single compound, 0.4 ppm, read-out: Efficacy
  inhibition of growth at 0.4 ppm: 70%
Diaporthe citri [3]; 0.4 ppm alone
  Efficacy: 83%
Diaporthe citri [3]; 2 ppm alone
  Efficacy: 96%
[4]
  inhibition of growth at 0.08 ppm: 18%
[4]; 0.4 ppm
  inhibition of growth at 0.4 ppm: 51%
[4]; alone
  inhibition of growth at 0.08 ppm: 16%
Cercospora beticola [5]; Cercospora beticola, read-out: Efficacy %
  inhibition of growth at 0.4 ppm: 100%
Cercospora beticola [5]; Cercospora beticola, single compound, 0.08 ppm, read-out: Efficacy %
  inhibition of growth at 0.08 ppm: 96%
Cercospora beticola [5]; Cercospora beticola, single compound, read-out: Efficacy %
  inhibition of growth at 0.4 ppm: 100%

## CCCOc1nc2ccc(I)cc2c(=O)n1CCC [(13.004) proquinazid, proquinazid]
Cordana musae [1]; 0.08 ppm
  Efficacy: 0% and 5%
Cordana musae [1]; 0.4 ppm
  Efficacy: 0% and 3%
Cordana musae [1]; 10 ppm
  Efficacy: 15% and 20%
Cordana musae [6]; 0.08 ppm
  Efficacy %: 0%
Cordana musae [6]; 0.4 ppm
  Efficacy %: 0%
Cordana musae [6]; 2.0 ppm
  Efficacy %: 1%
Cordana musae [6]; 10.0 ppm
  Efficacy %: 26%
Cercospora beticola [7]; 0.08 ppm alone
  Efficacy %: 9%
Cercospora beticola [7]; 0.4 ppm alone
  Efficacy %: 0%
Cercospora beticola [7]; 2.0 ppm alone
  Efficacy %: 0%
Cercospora beticola [7]; 10.0 ppm, alone
  Efficacy %: 19%
Botrytis cinerea [8]; 0.08 ppm
  Efficacy: 13%
Botrytis cinerea [8]; 0.4 ppm
  Efficacy: 0%
  Efficacy %: 0%
Botrytis cinerea [8]; 2.0 ppm
  Efficacy: 0%
Botrytis cinerea [8]; 10.0 ppm
  Efficacy: 0%
  Efficacy %: 0%
Colletotrichum coccodes; single active compound at 0.4 ppm
  Efficacy %: 0%
Colletotrichum coccodes; single active compound at 2 ppm
  Efficacy %: 0%
Colletotrichum coccodes; single active compound at 10 ppm
  Efficacy %: 0%
Botrytis cinerea [2]; 0.4 ppm alone
  Efficacy %: 0%
Botrytis cinerea [2]; 2 ppm alone
  Efficacy %: 3% and 5%
Alternaria alternate; 0.08 ppm
  Efficacy %: 19%
Alternaria alternate; 0.4 ppm
  Efficacy %: 6%
Alternaria alternate; 2.0 ppm
  Efficacy %: 0%
Alternaria alternate; 10.0 ppm
  Efficacy %: 9%
Fusarium culmorum; 0.08 ppm alone
  Efficacy: 18%
Fusarium culmorum; 0.4 ppm alone
  Efficacy: 0%
Fusarium culmorum; single active compound, 0.08 ppm
  Efficacy: 2%
Fusarium culmorum; single active compound, 0.4 ppm
  Efficacy: 11%
Fusarium culmorum; single active compound, 2 ppm
  Efficacy: 8% and 7%
Alternaria alternata; 0.08 ppm
  Efficacy: 0%
Alternaria alternata; 0.4 ppm
  Efficacy: 3%
Alternaria alternata; 2 ppm
  Efficacy: 4%
Alternaria alternata; single compound, 0.08 ppm
  Efficacy: 11%
Alternaria alternata; single compound, 0.4 ppm
  Efficacy: 10%
Alternaria alternata; single compound, 2 ppm
  Efficacy: 0%
Alternaria alternata; single compound, 10 ppm
  Efficacy: 5%
[9]; single active at 0.08 ppm
  Efficacy %: 0%
[9]; single active at 0.4 ppm
  Efficacy %: 0%
[9]; single active at 2.0 ppm
  Efficacy %: 2%
[9]; single active at 10.0 ppm
  Efficacy %: 25%
Cercospora beticola [5]; 2 ppm
  Efficacy %: 0%
Cercospora beticola [5]; 10 ppm
  Efficacy %: 0%
Cercospora beticola [5]; single compound, 0.08 ppm
  Efficacy %: 0%
Diaporthe citri [10]; Table F10, 0.08 ppm alone
  Efficacy: 0%
Diaporthe citri [10]; Table F10, 0.4 ppm alone
  Efficacy: 0%
Diaporthe citri [10]; Table F10, 2.0 ppm alone
  Efficacy: 12%
Diaporthe citri [10]; Table F10, 10.0 ppm alone
  Efficacy: 24%
Diaporthe citri [10]; applied alone, 0.08 ppm
  Efficacy: 16%
Diaporthe citri [10]; applied alone, 0.4 ppm
  Efficacy: 0%
Diaporthe citri [10]; applied alone, 10.0 ppm
  Efficacy: 21%
Parastagonospora nodorum
  Efficacy: 32%

Reference: patent publication US12653191B2, “Active compound combinations” (Bayer Aktiengesellschaft, priority 2020, dated 2026)
